Data published in patent US9718812B2, “Substituted thiazole or oxazole P2X7 receptor antagonists” (Axxam S.P.A., priority 2014, dated 2017).

Experiments:
Format in all cases: cell-based
P2X7 receptor [1] = molecular target: T1, P2X7 receptor (Homo sapiens (Human), UniProt Q99572); assay: YO-PRO-1 Uptake Assay (large pore form, Bz-ATP stimulated); conditions: HEK-293 cells stably transfected with P2X7 receptor; Bz-ATP EC80 (30 μM); 5 μM YO-PRO-1
Method in brief: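 IC50 values derive from percent inhibition versus A438079, using large-pore YO-PRO-1 (5 μM) entry into P2X7-transfected HEK-293 cells. Buffer held 0.3 mM Ca2+ and no Mg2+; after 5 min with test compound, cells were challenged with Bz-ATP at EC80 (30 μM, 3× concentration) and fluorescence recorded 60 min.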

P2X7 receptor [2] = molecular target: T1, P2X7 receptor; assay: human P2X7 channel assay by automated patch-clamp (QPatch 16X); conditions: HEK-293 cells expressing P2X7 channels, 100 microM BzATP, held at -80 mV, read-out: hP2X7 (IC50; nM)
Description: In order to directly monitor the block of P2X7 channel, an electrophysiological assay was developed and implemented on the QPatch 16X automated electrophysiology instrument.
HEK-293 cells expressing the P2X7 channels were cultured in modified EMEM.
72 hours before experiment, 5 million cells were seeded onto T225 flasks. Just before the experiment cells were washed twice, detached from the flask with trypsin-EDTA, re-suspended in the suspension solution and placed on the QPatch 16x.
The compounds (20 mM in a 100% DMSO) stored at −20° C. were prepared the day of the experiment (a first dilution 1:20 in 100% DMSO to prepare a 1 mM stock solution, then a 1 microM solution in external solution+a serial dilution 1:10).
The standard whole-cell voltage clamp experiments were performed at room temperature. For these experiments the multihole technology was used and the data were sampled at 2 KHz.
The intracellular solution contained (mM) 135 CsF, 10 NaCl, 1 EGTA, 10 HEPES, (pH 7.2 with CsOH) whereas the extracellular contained (mM) 145 NaCl, 4 KCl, 0.5 MgCl2, 1 CaCl2, 10 HEPES, 10 Glc (pH 7.4 with NaOH).
After establishment of the seal and the passage in the whole cell configuration, the cells were held at −80 mV. The P2XR7 current was evoked by applying 100 microM of BzATP alone (4 times) and then in the presence increasing concentrations of the compound under investigation (1, 10, 100 and 1000 nM).
The pre-incubation periods 5 to 8 contain increasing concentrations of the compound of interest (1, 10, 100 and 1000 nM), as illustrated in Figure (application protocol).
The maximal inward current evoked by BzATP in absence or presence of increasing concentrations of the compounds under investigation was measured and normalized.
Y: normalized response, 100% down to 0%, decreasing as X increases.
Log IC50: same log units as X
HillSlope: slope factor or HS, unitless

P2X7 receptor (hP2X7) = P2X7 receptor (hP2X7) (Homo sapiens (Human), UniProt Q99572); assay: Screen Quest Fluo-8 No Wash Calcium Assay (Bz-ATP-induced Ca2+ influx, FLIPR TETRA); conditions: HEK-293 cells stably transfected with P2X7 receptor, Fluo-8 calcium, Low Divalent Cation Assay Buffer
Method in brief: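 Read-out is Fluo-8 NW fluorescence recorded over a 5-min kinetic window, reporting Bz-ATP-evoked Ca2+ entry. Cells: HEK-293 stably expressing the P2X7 receptor, dye-loaded for 1 h at room temperature before compound injection.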

T1 sequence (Q99572 whole entry): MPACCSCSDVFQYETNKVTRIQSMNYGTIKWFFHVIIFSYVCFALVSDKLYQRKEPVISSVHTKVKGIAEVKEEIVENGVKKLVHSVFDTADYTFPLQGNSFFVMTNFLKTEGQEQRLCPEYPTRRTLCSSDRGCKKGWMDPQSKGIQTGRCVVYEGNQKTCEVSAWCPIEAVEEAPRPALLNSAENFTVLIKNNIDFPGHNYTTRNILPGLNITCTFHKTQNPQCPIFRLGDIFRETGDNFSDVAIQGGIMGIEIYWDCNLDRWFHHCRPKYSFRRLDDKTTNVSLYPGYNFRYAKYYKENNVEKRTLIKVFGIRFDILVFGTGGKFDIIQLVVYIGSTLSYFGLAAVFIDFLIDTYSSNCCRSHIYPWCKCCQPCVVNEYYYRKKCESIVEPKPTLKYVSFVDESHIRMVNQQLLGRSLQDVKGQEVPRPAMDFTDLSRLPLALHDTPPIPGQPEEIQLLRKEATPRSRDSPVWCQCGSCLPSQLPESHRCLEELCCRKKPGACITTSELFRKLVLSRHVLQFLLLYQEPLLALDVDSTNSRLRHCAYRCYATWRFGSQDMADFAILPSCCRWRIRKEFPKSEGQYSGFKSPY
Chain of P2X7 receptor (hP2X7) (Q99572 whole entry): as above

SMILES | IC50 (P2X7 receptor [1]) [nM] | IC50 (P2X7 receptor [2]) [nM] | IC50 (P2X7 receptor (hP2X7)) [nM]
O=C(NCC(c1cnc(C2CC2)s1)N1CCC(F)(F)CC1)c1c(F)cccc1Cl (stereo not shown) [Compound 88, 2-chloro-N-[2-(2-cyclopropyl-1,3-thiazol-5-yl)-2-(4,4-difluoropiperidin-1-yl)ethyl]-6-fluorobenzamide] | 28 | 52.1 | 36
Cc1ncsc1C(CNC(=O)c1c(F)cccc1Cl)N1CCC(Oc2ccccc2)CC1 (stereo not shown) [Compound 60, 2-chloro-6-fluoro-N-[2-(4-methyl-1,3-thiazol-5-yl)-2-(4-phenoxypiperidin-1-yl)ethyl]benzamide] | 79 | 58.9 | 188
Cc1ncsc1C(CNC(=O)c1c(F)cccc1Cl)N1CCc2ccccc2C1 (stereo not shown) [Compound 29, 2-chloro-6-fluoro-N-[2-(4-methyl-1,3-thiazol-5-yl)-2-(1,2,3,4-tetrahydroisoquinolin-2-yl)ethyl]benzamide] | 90 | 36.1 | 130
Cc1ncc(C(CNC(=O)c2c(C)cccc2Cl)N2CCC(F)(F)CC2)s1 (stereo not shown) [Compound 39, 2-chloro-N-[2-(4,4-difluoropiperidin-1-yl)-2-(2-methyl-1,3-thiazol-5-yl)ethyl]-6-methylbenzamide] | 18 | 61.9 | 28
O=C(NCC(c1cscn1)N1CCc2ccccc2C1)c1c(F)cccc1Cl (stereo not shown) [Compound 6, 2-chloro-N-[2-(3,4-dihydro-1H-isoquinolin-2-yl)-2-(1,3-thiazol-4-yl)-ethyl]-6-fluoro-benzamide] | 1260 |  | 800
Cc1cccc(C)c1C(=O)NCC(c1scnc1C)N1CCc2ccccc2C1 (stereo not shown) [Compound 30, 2,6-dimethyl-N-[2-(4-methyl-1,3-thiazol-5-yl)-2-(1,2,3,4-tetrahydroisoquinolin-2-yl)ethyl]benzamide] | 37 |  | 46
O=C(NCC(c1cncs1)N1CCC(Oc2ccccc2)CC1)c1c(F)cccc1Cl (stereo not shown) [Compound 27, 2-chloro-6-fluoro-N-[2-(4-phenoxypiperidin-1-yl)-2-(1,3-thiazol-5-yl)ethyl]benzamide] | 52 |  | 63

Results, then the compound that gave them:

IC50 (P2X7 receptor [1]) [nM] | IC50 (P2X7 receptor [2]) [nM] | IC50 (P2X7 receptor (hP2X7)) [nM] | SMILES
22 | 65.7 | 73 | Cc1ncc(C(CNC(=O)c2cc(-c3ncc(F)cn3)ccc2Cl)N2CCC(F)(F)CC2)s1 (single isomer, unassigned; (+)) [Compound 127, (+)-2-chloro-N-[2-(4,4-difluoro-piperidin-1-yl)-2-(2-methylthiazol-5-yl)ethyl]-5-(5-fluoropyrimidin-2-yl)benzamide]
183 | 58.4 | 32 | Cc1ncsc1C(CNC(=O)c1cc(-c2ncc(F)cn2)ccc1F)N1CCC(F)(F)CC1 (stereo not shown) [Compound 70, N-[2-(4,4-difluoropiperidin-1-yl)-2-(4-methyl-1,3-thiazol-5-yl)ethyl]-2-fluoro-5-(5-fluoropyrimidin-2-yl)benzamide]
181 | 63.1 | 103 | O=C(NCC(c1scnc1C(F)(F)F)N1CCC(F)(F)CC1)c1cc(-c2ncc(F)cn2)ccc1Cl (stereo not shown) [Compound 68]
34 | 57.1 | 60 | O=C(NCC(c1scnc1C(F)F)N1CCC(F)(F)CC1)c1cc(-c2ncc(F)cn2)ccc1Cl (stereo not shown) [Compound 102, 2-chloro-N-{2-[4-(difluoromethyl)-1,3-thiazol-5-yl]-2-(4,4-difluoropiperidin-1-yl)ethyl}-5-(5-fluoropyrimidin-2-yl)benzamide]
 | 183 | 1760 | Cc1ncsc1C(CN(C)C(=O)c1cc(-c2ncc(F)cn2)ccc1Cl)N1CCC(F)(F)CC1 (stereo not shown) [Compound 77, 2-chloro-N-[2-(4,4-difluoropiperidin-1-yl)-2-(4-methyl-1,3-thiazol-5-yl)ethyl]-5-(5-fluoropyrimidin-2-yl)-N-]
807 |  | 1240 | O=C(NCC(c1cnc(C2CCC2)s1)N1CCC(F)(F)CC1)c1cc(-c2ncc(F)cn2)ccc1F (stereo not shown) [Compound 106, N-[2-(2-cyclobutyl-1,3-thiazol-5-yl)-2-(4,4-difluoropiperidin-1-yl)ethyl]-2-fluoro-5-(5-fluoropyrimidin-2-yl)benzamide]
